These results are taken from patent US20100197584A1, “USE OF CURCUMIN TO BLOCK BRAIN TUMOR FORMATION IN MICE” (Research Foundations of the City University of- New York, priority 2007, published 2010).

The structures appear in SMILES notation.

Data set [1] concerns N18 (mouse neuroblastoma) cells. As to the kind of experiment: Caspase-3/7 assay in N18 cells. Format: cell-based. To be noted: 20 μM and 50 μM, 48 h or 96 h (FIG. 2). Here is the method: (§1) Cells. B16F10 (mouse melanoma), GL261 (mouse glioma), HOG (human oligodendroglioma), A549 (human lung cancer), and […] (mouse neuroblastoma) cells were cultured separately in DMEM containing 10% (v/v) fetal bovine serum and 1% (v/v) penicillin-streptomycin (PS) and allowed to grow to 40% confluence in a 96-well plate. Curcumin Treatment. Two hours before drug treatment, the medium in each well was replaced with 200 μl Neurobasal medium supplemented with 2% (v/v) B27 and 1% (v/v) PS (Drug-treatment Medium). A stock solution (40 mM) of curcumin was prepared in sterile dimethyl sulfoxide (DMSO) (Example 1). Through serial dilution of each stock solution in Drug-treatment Medium, the following concentrations were obtained: 20 μM and 50 μM (for caspase 3/7 assays) or 25 μM and 50 μM (for MTT assays). Drug-treatment Medium in each well was aspirated, and a drug solution of each concentration or carrier-containing medium (control) was added to triplicate wells of cells (50 μl/well). […] Additionally, the background absorbance was determined from parallel wells containing only the Drug-treatment Medium plus a particular concentration of the drug (no cells). […] Fluorescence in each well was measured using the FLx 800 plate reader (Bio-Tek Instruments, Winooski, Vt.) set at 485/20 nm excitation and 528/20 nm emission wavelengths and the sensitivity of 70. […]

For data set [2], the system named is GL261 (mouse glioma) cells. The data set is described as follows: Caspase-3/7 assay in GL261 cells. To be noted: 20 μM and 50 μM, 48 h (FIG. 4). Format: cell-based. Here is the method:
as §1

The subject of data set [3] is normal (non-tumor) brain cells. As to the kind of experiment: Normal brain cell viability (MTT on brain sections). Format: in vivo. The note with it: 200 μl of 667 μM, tail vein, three consecutive days; compared to carrier-injected mice (FIG. 10). As to the method: In each experiment, three mice were injected with 200 μl of PBS containing 3% DMSO, and three mice were injected with 200 μl of 667 μM curcumin (as described earlier) through the tail vein on three consecutive days by the method described above. On the fourth day, the mice were perfused with PBS through the heart, and the brains sectioned into 400-μm sections. Similar brain sections were also made from untreated mice which were then treated with 1 mM H2O2 in PBS for one hour, followed by incubation in H2O2-free DTM for three hours. These samples were used as a positive control for cell death.
The sections from each mouse were placed in 400 μl PBS in one well of a 48-well plate (i.e. three wells for three mice) and then treated with 200 μl of MTT (5 mg/ml) per well with gentle mixing at 37° C. for about 2 hours. Subsequently, 800 μl of the lysis buffer was added to each well, and the plate was sealed and incubated overnight at 37° C. with gentle mixing. Three 100-μl portions of the tissue solution obtained were next transferred to three respective wells of a 96-well plate (i.e. three wells per mouse and nine wells for three mice in one group) and absorbance at 570 nm was measured using a 96-well multi scanner auto-reader. Results obtained were normalized to protein levels and then expressed as percent of carrier-treated samples.

The subject of another data set is B16F10 cells. The data set is described as follows: Intracranial injection of curcumin on brain tumor cells (B16F10). To be noted: 5 μl of 3 mM curcumin via cannula every other day. Format: in vivo, mice. From the text:
Each mouse was fitted with a stainless steel guide cannula (Plastic Ones, System C313G, Roanoke, Va., USA) to administer curcumin directly to the brain. Cannulas were implanted into the right frontal cortex at the same coordinates as used earlier for intracerebral injection. The guide cannula was fixed to the skull with dental cement. A removable stylet plugged the guide cannula except during the time of drug injection. B16F10 cells (103) were delivered into mice in two sets on the first day. Starting from the third day, 5 μl of curcumin (3 mM) in PBS containing 15% DMSO were infused through the cannula of one set of mice (three), whereas the other set of mice (three) received 5 μl of PBS containing 15% DMSO (carrier). Considering that the brain volume of an adult mouse is about 400 μl, dispersion of this solution would give a final concentration of 37.5 μM curcumin and 0.187% DMSO in the brain. This infusion was started on the third day and then performed every other day, until day 19. The brains of the treated mice were removed and soaked (fixed) in 4% paraformaldehyde.

For data set [4] the following is noted: cited from earlier work.
Another data set has as its system ovarian cancer. To be noted: orthotopic murine model of ovarian cancer (Lin et al. 2007); cited from earlier work.

Take `COc1cc(/C=C/C(=O)CC(=O)/C=C/c2ccc(O)c(OC)c2)ccc1O` [curcumin]: the caspase-3/7 activity result in data set [1] and in data set [2] was “increased” each time. Besides, in data set [3], the “cell viability in the brain (MTT activity)” value was “did not cause suppression of cell viability”. For the same molecule, the “mice with a detectable brain tumor” value in the data set on B16F10 cells (day 3 to day 19 (FIG. 11)) is on record as “None”. For the same molecule, the behavior entry in the data set on B16F10 cells (day 3 to day 19, carrier mice collapsed day 15-25) is “normal behavior”. Besides, in data set [4], the solubility in water entry is “very low”. The tumor growth result in the data set on ovarian cancer is recorded as “reduces tumor growth”.
